Data published in patent US12606568B2, “SMARCA degraders and uses thereof” (Kymera Therapeutics, Inc., priority 2020, dated 2026).

Experiments:
Assay type in all cases: cell-based
[1] = biological target: T1, SMARCA4 (Homo sapiens, UniProt P51532); test: SMARCA4 Western blot MV4-11 degradation; details: for DC50 / Dmax: 24 h; for DC50: read-out: SMARCA4 MSD MV411 degradation 24 h: Mean external-Abs DC50; for Dmax: MV4-11, MV4-11 cells, read-out: SMARCA4 MSD MV411 degradation 24 h: average Dmax %
T1 construct: SMARCA2 and SMARCA4 protein degradation in MV4-11 cells; endogenous in cells; host or cells: MV4-11

[2] = biological target: T2, SMARCA2 (Homo sapiens, UniProt P51531); test: SMARCA2 Western blot MV4-11 degradation; parameters: SMARCA2 and SMARCA4 protein degradation in MV4-11 cells; endogenous in cells; host or cells: MV4-11; details: for DC50 / Dmax: 24 h; for DC50: read-out: SMARCA2 MSD MV411 degradation 24 h: Mean external-Abs DC50; for Dmax: MV4-11, MV4-11 cells, read-out: SMARCA2 MSD MV411 degradation 24 h: average Dmax %
[3] = biological target: T2, SMARCA2; test: MSD SMARCA2 degradation in A549 cell line; parameters: endogenous in cells; details: for DC50 / Dmax: 24 h; for DC50: read-out: SMARCA2 MSD A549 degradation 24 h: Average external-Abs DC50; for Dmax: A549, A549 cells
How it was run: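 A549 cells treated 24 h with compound, 3-fold series 1000 nM down to 0.152 nM plus DMSO. RIPA lysates captured on MSD plates, probed with rabbit anti-SMARCA2/BRM (1 µg/ml) then SULFO-TAG anti-rabbit, electrochemiluminescence read. DC50 and 24 h Dmax reported as letter bins.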

T2 sequence (P51531 whole entry): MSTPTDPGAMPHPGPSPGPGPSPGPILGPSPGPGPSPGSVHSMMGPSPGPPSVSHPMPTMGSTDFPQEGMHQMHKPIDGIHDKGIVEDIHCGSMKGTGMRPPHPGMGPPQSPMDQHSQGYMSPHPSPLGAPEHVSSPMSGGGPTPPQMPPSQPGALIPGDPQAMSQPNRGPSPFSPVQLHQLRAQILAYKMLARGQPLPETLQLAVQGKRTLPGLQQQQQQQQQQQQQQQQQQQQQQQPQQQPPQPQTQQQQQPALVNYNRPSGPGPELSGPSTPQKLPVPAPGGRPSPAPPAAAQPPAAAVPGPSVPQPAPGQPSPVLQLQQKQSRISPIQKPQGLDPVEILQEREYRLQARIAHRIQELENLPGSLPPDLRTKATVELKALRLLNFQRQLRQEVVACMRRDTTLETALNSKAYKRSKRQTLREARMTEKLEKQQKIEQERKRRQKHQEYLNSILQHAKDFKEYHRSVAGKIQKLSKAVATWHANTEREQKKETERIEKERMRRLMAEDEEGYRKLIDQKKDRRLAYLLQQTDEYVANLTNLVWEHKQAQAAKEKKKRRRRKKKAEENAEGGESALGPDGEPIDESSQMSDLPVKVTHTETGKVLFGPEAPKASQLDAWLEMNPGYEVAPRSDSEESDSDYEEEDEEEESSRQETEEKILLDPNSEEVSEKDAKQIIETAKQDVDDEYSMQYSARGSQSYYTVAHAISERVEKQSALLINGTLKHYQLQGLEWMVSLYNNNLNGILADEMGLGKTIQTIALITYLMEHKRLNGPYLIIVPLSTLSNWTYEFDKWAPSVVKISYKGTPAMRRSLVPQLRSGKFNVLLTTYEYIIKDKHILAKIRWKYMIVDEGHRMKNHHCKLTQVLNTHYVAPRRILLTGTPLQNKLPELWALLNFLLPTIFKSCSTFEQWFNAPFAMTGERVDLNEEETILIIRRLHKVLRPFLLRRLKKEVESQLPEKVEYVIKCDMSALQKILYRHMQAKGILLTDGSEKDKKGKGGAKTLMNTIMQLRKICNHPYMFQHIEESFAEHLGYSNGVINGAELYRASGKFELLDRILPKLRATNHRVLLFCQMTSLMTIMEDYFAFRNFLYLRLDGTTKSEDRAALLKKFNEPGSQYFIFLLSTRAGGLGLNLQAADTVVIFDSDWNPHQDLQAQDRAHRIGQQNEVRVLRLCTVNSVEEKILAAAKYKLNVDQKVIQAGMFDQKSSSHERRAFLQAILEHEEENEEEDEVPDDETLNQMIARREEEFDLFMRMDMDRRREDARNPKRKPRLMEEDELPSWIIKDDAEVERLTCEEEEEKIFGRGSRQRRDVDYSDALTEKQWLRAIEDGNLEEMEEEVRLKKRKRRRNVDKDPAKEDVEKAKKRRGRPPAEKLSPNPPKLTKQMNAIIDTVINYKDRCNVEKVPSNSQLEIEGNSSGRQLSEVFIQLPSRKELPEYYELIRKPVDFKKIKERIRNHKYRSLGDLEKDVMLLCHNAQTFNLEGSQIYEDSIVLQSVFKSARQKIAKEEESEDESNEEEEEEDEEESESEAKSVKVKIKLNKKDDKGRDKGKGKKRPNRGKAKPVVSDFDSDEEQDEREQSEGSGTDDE
T1 sequence (P51532 whole entry): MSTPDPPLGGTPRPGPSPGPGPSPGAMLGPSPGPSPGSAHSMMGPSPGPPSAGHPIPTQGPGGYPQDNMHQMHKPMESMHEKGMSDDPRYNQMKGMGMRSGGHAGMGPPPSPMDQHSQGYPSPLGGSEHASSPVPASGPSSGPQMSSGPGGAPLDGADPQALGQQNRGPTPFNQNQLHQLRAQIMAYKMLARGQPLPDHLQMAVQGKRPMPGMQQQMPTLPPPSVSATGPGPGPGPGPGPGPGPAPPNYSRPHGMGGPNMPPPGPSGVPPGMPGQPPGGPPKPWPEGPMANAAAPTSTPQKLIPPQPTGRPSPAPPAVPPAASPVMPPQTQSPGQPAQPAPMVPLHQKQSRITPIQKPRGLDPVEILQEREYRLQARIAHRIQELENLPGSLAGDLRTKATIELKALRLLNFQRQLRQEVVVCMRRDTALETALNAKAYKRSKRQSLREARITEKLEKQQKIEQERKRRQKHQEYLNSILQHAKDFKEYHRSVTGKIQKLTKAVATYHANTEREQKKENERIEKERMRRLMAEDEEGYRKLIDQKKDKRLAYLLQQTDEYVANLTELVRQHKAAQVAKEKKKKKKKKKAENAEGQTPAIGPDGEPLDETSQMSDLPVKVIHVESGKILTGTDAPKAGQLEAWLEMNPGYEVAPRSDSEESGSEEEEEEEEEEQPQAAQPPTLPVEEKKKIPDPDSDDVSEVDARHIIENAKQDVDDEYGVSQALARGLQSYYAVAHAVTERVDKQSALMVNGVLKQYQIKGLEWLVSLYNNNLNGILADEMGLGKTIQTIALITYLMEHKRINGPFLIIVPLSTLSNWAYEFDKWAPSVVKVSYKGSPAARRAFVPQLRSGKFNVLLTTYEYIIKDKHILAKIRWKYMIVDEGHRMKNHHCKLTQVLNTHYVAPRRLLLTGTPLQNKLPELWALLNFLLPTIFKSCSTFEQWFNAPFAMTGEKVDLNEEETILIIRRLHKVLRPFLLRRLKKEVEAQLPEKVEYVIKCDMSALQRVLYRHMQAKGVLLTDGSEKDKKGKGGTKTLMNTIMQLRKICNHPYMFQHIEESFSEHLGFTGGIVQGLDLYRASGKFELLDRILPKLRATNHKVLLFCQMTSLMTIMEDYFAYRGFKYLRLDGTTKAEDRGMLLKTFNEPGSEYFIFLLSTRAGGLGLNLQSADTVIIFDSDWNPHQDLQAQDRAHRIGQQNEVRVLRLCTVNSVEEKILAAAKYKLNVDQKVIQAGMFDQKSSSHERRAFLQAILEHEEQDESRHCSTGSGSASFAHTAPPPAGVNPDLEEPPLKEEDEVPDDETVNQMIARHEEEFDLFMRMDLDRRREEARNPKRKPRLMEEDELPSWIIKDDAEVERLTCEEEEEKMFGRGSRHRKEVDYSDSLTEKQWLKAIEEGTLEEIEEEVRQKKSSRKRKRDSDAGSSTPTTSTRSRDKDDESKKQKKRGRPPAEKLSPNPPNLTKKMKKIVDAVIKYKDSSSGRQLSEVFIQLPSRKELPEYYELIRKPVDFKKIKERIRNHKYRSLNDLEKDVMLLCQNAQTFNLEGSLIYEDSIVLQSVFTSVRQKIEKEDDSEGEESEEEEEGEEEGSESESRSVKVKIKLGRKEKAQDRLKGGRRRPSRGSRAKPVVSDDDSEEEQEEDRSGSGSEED

SMILES	SMARCA4 MSD MV411 degradation 24 h: average Dmax % ([1]; MV4-11 cells)	DC50 ([1]; MV4-11 cells)	SMARCA2 MSD MV411 degradation 24 h: average Dmax % ([2]; MV4-11 cells)	DC50 ([2]; MV4-11 cells)	SMARCA2 MSD A549 degradation 24 h: Average Dmax % ([3]; A549 cells)	DC50 ([3]; A549 cells)	Dmax [1]	Dmax [2]	Dmax [3]
Cc1ncsc1-c1ccc([C@H](C)NC(=O)[C@@H]2C[C@@H](O)CN2C(=O)[C@@H](NC(=O)[C@H]2CCC3(CC2)C[C@H](N2CCC(c4cnc(N5C6CCC5CN(c5cc(-c7ccccc7O)nnc5N)C6)nc4)CC2)C3)C(C)(C)C)cc1 (stereo partly drawn) [I-16, (2S,4R)-1-((2S)-2-(2-(4-(2-(3-(3-amino-6-(2-hydroxyphenyl)pyridazin-4-yl)-3,8-diazabicyclo[3.2.1]octan-8-yl)pyrimidin-5-yl)piperidin-1-yl)spiro[3.5]nonane-7-carboxamido)-3,3-dimethylbutanoyl)-4-hydroxy-N—((S)-1-(4-(4-methylthiazol-5-yl)phenyl)ethyl)pyrrolidine-2-carboxamide]	B (B (>70-90% degradation))	< 100 nM	A (A (>90% degradation))	< 100 nM	A (A (>90% o degradation))	100 to 500 nM	–	–	–
Cc1ncsc1-c1ccc(CNC(=O)[C@@H]2C[C@H](O)CN2C(=O)[C@@H](NC(=O)[C@H]2CC3(C2)C[C@H](N2CCC(c4cnc(N5C6CCC5CN(c5cc(-c7ccccc7O)nnc5N)C6)nc4)CC2)C3)C(C)(C)C)cc1 (stereo partly drawn) [I-79, (2S,4S)-1-((2S)-2-(6-(4-(2-(3-(3-amino-6-(2-hydroxyphenyl)pyridazin-4-yl)-3,8-diazabicyclo[3.2.1]octan-8-yl)pyrimidin-5-yl)piperidin-1-yl)spiro[3.3]heptane-2-carboxamido)-3,3-dimethylbutanoyl)-4-hydroxy-N-(4-(4-methylthiazol-5-yl)benzyl)pyrrolidine-2-carboxamide]	–	> 1000 nM	–	> 1000 nM	–	> 1000 nM	< 50%	< 50%	< 50%
Cn1nccc1-c1ccc(CNC(=O)[C@@H]2C[C@@H](O)CN2C(=O)[C@@H](NC(=O)[C@H]2CC[C@H](c3cnc(N4C5CCC4CN(c4cc(-c6ccccc6O)nnc4N)C5)nc3)CC2)C(C)(C)C)cc1 [I-68, (2S,4R)-1-((2S)-2-((1r,4S)-4-(2-(3-(3-amino-6-(2-hydroxyphenyl)pyridazin-4-yl)-3,8-diazabicyclo[3.2.1]octan-8-yl)pyrimidin-5-yl)cyclohexanecarboxamido)-3,3-dime-thylbutanoyl)-4-hydroxy-N-(4-(1-methyl-1H-pyrazol-5-yl)benzyl)pyrrolidine-2-carboxamide]	–	< 100 nM	–	< 100 nM	–	< 100 nM	> 90%	> 90%	> 90%
Cc1ncsc1-c1ccc(CNC(=O)[C@@H]2C[C@@H](O)CN2C(=O)C(c2cc(OCCCOCCCN3CCC(Cn4cc(-c5cc(-c6ccccc6O)nnc5N)cn4)CC3)no2)C(C)C)cc1 (stereo partly drawn) [I-21, (2S,4R)-1-(2-(3-(3-(3-(4-((4-(3-amino-6-(2-hydroxyphenyl)pyridazin-4-yl)-1H-pyrazol-1-yl)methyl)piperidin-1-yl)propoxy)propoxy)isoxazol-5-yl)-3-methylbutanoyl)-4-hydroxy-N-(4-(4-methylthiazol-5-yl)benzyl)pyrrolidine-2-carboxamide]	–	501 to 1000 nM	–	< 100 nM	–	> 1000 nM	70 to 90%	> 90%	> 90%
Cc1ncsc1-c1ccc(CNC(=O)[C@@H]2C[C@@H](O)CN2C(=O)[C@@H](NC(=O)[C@H]2CC3(C2)C[C@H](N2CC4(CN(c5cnc(N6C7CCC6CN(c6cc(-c8ccccc8O)nnc6N)C7)nc5)C4)C2)C3)C(C)(C)C)cc1 (stereo partly drawn) [I-12, (2S,4R)-1-((2S)-2-(6-(6-(2-(3-(3-amino-6-(2-hydroxyphenyl)pyridazin-4-yl)-3,8-diazabicyclo[3.2.1]octan-8-yl)pyrimidin-5-yl)-2,6-diazaspiro[3.3]heptan-2-yl)spiro[3.3]heptane-2-carboxamido)-3,3-dimethylbutanoyl)-4-hydroxy-N-(4-(4-methylthiazol-5-yl)benzyl)pyrrolidine-2-carboxamide]	–	> 1000 nM	–	< 100 nM	–	100 to 500 nM	–	–	–
Cc1ncsc1-c1ccc(CNC(=O)[C@@H]2C[C@@H](O)CN2C(=O)[C@@H](NC(=O)[C@H]2CC3(C2)C[C@H](N2CCC(c4ccc(N5C6CCC5CN(c5cc(-c7ccccc7O)nnc5N)C6)cc4)CC2)C3)C(C)(C)C)cn1 (stereo partly drawn) [I-28, (2S,4R)-1-((2S)-2-(6-(4-(4-(3-(3-amino-6-(2-hydroxyphenyl)pyridazin-4-yl)-3,8-diazabicyclo[3.2.1]octan-8-yl)phenyl)piperidin-1-yl)spiro[3.3]heptane-2-carboxamido)-3,3-dimethylbutanoyl)-4-hydroxy-N-((6-(4-methylthiazol-5-yl)pyridin-3-yl)methyl)pyrrolidine-2-carboxamide]	–	> 1000 nM	–	100 to 500 nM	–	> 1000 nM	–	–	–
Cc1ncsc1-c1ccc(CNC(=O)[C@@H]2C[C@@H](O)CN2C(=O)C(c2cc(OCCN3CCC(c4cnc(N5C6CCC5CN(c5cc(-c7ccccc7O)nnc5N)C6)nc4)CC3)no2)C(C)C)cc1 (stereo partly drawn) [I-50, (2S,4R)-1-(2-(3-(2-(4-(2-(3-(3-amino-6-(2-hydroxyphenyl)pyridazin-4-yl)-3,8-diazabicyclo[3.2.1]octan-8-yl)pyrimidin-5-yl)piperidin-1-yl)ethoxy)isoxazol-5-yl)-3-methylbutanoyl)-4-hydroxy-N-(4-(4-methylthiazol-5-yl)benzyl)pyrrolidine-2-carboxamide]	–	< 100 nM	–	< 100 nM	–	< 100 nM	> 90%	> 90%	> 90%
Cc1ncsc1-c1ccc([C@H](C)NC(=O)[C@@H]2C[C@@H](O)CN2C(=O)[C@@H](NC(=O)[C@H]2CC3(C2)C[C@H](N2CCC(c4cnc(N5C6CCC5CN(c5cc(-c7ccccc7O)nnc5N)C6)nc4)CC2)C3)C(C)(C)C)cc1 (single isomer, unassigned) [I-1]	–	< 100 nM	–	< 100 nM	–	100 to 500 nM	70 to 90%	70 to 90%	> 90%
